Results reported in patent US10392389B2, “Heterocyclic compounds for the inhibition of PASK” (BioEnergenix, LLC, priority 2012, dated 2019).

Columns and labels:
[1] = In vivo pharmacokinetics in the Sprague Dawley rat; conditions: formulation as in Table 5
Method: Pharmacokinetics of a PASK Inhibitor
The in vivo pharmacokinetics of Examples 12, 17, 43, and 51 were evaluated in the Sprague Dawley rat. Blood samples were collected at 0.083, 0.25, 0.5, 1, 2, 4, 6, 8, and 24 hours and the samples were analyzed for test compounds content using LC/MS/MS. The data was submitted to pharmacokinetic analysis using WinNonLin software and the observed and calculated pharmacokinetic parameters are shown in Table 5 for each compound.

[2] = target: T1, PASK (Invitrogen) (Homo sapiens, UniProt Q96RG2); assay: PAS Kinase FRET Assay; assay type: biochemical; conditions: PAS kinase TR-FRET assay (665 nm/615 nm); read-out: IC50 Kinase Domain
T1 construct: IC50 Kinase Domain; purchased Invitrogen
T1 sequence (Q96RG2 999-1251 limits assumed): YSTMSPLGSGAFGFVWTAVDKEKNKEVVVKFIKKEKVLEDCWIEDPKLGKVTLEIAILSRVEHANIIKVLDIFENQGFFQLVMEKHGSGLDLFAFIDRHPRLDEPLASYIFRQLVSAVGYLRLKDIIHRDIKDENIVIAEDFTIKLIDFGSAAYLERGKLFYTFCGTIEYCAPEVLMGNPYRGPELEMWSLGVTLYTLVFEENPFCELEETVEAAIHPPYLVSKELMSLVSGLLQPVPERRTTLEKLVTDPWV
How it was run: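 PASK phosphorylates a ULight-peptide with ATP in 50 mM HEPES, 10 mM MgCl2, 1 mM EGTA, 0.01% Tween-20, 2 mM DTT for 2 h at 25° C in the dark. Compounds are added as 4× serial dilutions (top 12×10^−5 M at 4×). After stopping, an Eu anti-phospho-substrate antibody is added for 1 h and TR-FRET is read at 665/615 nm.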

[3] = target: T2, PASK (UniProt #Q96RG2; human recombinant N-terminal GST tagged construct, residues 879-1323) (Homo sapiens, UniProt Q96RG2); assay: PASK ATP Radiochemical Assay; assay type: biochemical; conditions: 33P-ATP, Myelin Basic Protein substrate, read-out: IC50 Kinase Domain
T2 construct: N-terminal GST tagged construct, residues 879-1323; GST (N); host or cells: insect cells
T2 sequence (Q96RG2 879-1323, stated change not applied): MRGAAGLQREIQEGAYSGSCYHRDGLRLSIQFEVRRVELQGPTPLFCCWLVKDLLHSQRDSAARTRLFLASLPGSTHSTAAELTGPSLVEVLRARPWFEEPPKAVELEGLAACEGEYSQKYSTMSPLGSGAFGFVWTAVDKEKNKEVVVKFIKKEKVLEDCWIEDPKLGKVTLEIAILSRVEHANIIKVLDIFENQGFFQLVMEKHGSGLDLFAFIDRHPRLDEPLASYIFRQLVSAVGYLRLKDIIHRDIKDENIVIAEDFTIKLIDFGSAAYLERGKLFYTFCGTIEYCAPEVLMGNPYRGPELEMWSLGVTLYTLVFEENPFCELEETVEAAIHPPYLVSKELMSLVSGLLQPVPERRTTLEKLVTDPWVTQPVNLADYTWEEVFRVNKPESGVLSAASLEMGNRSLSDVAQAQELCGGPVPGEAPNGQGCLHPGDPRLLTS
How it was run: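 Insect-cell GST-PASK (residues 879-1323, 5 nM final) phosphorylating 20 μM myelin basic protein with ^33P-ATP (0.01 μCi/μl final). Buffer 20 mM HEPES pH 7.5, 10 mM MgCl2, 1% DMSO. Reaction ran 120 min at room temperature; P81 filter binding and scintillation counting.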

[4] = target: T3, PIM1 (NP_002639; human full-length protein, 6×His tagged) (Homo sapiens, UniProt P11309); assay: Biochemical Assay for PIM1 Activity; conditions: 33P-ATP radiochemical assay, S6K/Rsk2 peptide 2 substrate
T3 construct: human full-length protein, 6×His tagged; 6xHis; host or cells: insect cells
T3 sequence (P11309 whole entry): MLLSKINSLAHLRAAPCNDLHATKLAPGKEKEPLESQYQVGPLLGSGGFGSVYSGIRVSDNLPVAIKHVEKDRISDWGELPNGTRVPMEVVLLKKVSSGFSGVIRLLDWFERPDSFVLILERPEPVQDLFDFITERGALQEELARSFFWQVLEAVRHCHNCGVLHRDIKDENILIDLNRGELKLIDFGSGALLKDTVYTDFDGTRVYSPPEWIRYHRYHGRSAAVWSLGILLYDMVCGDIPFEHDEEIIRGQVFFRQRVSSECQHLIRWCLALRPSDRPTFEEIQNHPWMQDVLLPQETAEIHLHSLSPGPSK
How it was run: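 His-tagged full-length human PIM1 from insect cells (1.0 nM final) was reacted with S6K/Rsk2 peptide 2 (20 μM) and ³³P-ATP in Hepes pH 7.5 buffer with 1% DMSO for 120 min at room temperature. Phosphorylated peptide was captured on P81 paper and counted by scintillation.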

[5] = target: T4, CK2a2 (NP_001887; human full-length protein, GST tagged) (Homo sapiens, UniProt P19784); assay: Biochemical Assay for CK2 Activity; conditions: 33P-ATP radiochemical assay, CK2 sub [RRRDDDSDDD]
T4 construct: human full-length protein, GST tagged; GST; host or cells: insect cells
T4 sequence (P19784 whole entry): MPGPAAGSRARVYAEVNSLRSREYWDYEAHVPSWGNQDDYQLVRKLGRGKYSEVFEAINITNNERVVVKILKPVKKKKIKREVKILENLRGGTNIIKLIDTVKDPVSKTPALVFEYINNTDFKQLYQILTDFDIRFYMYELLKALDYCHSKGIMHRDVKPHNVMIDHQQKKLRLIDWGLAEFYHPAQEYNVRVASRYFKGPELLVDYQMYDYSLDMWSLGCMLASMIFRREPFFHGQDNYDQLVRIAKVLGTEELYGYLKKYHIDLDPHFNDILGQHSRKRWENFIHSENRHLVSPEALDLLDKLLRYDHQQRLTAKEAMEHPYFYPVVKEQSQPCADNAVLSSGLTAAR
How it was run: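 Radiometric filter-binding assay: GST-tagged full-length CK2a2 (1.2 nM) with 20 μM RRRDDDSDDD peptide in HEPES pH 7.5, MgCl2, EGTA, DTT, 1% DMSO; reaction started with ^33P-ATP and run 120 min at room temperature. Phosphorylated peptide captured on P81 paper, washed, and counted by scintillation.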

## CCn1ncc2cc(-c3cc(=O)n4ncc(-c5ncc(C)o5)c4[nH]3)ccc21 [Example 12, 5-(1-ethyl-1H-indazol-5-yl)-3-(5-methyl-1,3-oxazol-2-yl)-4H,7H-pyrazolo[1,5-a]pyrimidin-7-one]
[1]; IV, 3 mg/kg
  Cl (clearance): 8.76 mL/min/kg
  Vss (volume of distribution): 0.35 L/kg
  t1/2 (half-life): 3.75 h
[1]; PO, 10 mg/kg
  F (oral bioavailability): 46.5%
  Tmax (Time to maximum blood concentration after an oral dose): 0.5 h
  t1/2 (half-life): 2.38 h
[2]
  IC50: ≤ 10 µM

## COc1cc(-c2cc(=O)n3ncc(-c4ncc(C)o4)c3[nH]2)ccc1Cl [Example 17, 5-(4-chloro-3-methoxyphenyl)-3-(5-methyl-1,3-oxazol-2-yl)-4H,7H-pyrazolo[1,5-a]pyrimidin-7-one]
[1]; IV, 3 mg/kg
  Cl (clearance): 6.19 mL/min/kg
  Vss (volume of distribution): 0.61 L/kg
  t1/2 (half-life): 8.3 h
[1]; PO, 10 mg/kg
  F (oral bioavailability): 42%
  Tmax (Time to maximum blood concentration after an oral dose): 4 h
  t1/2 (half-life): 2.12 h
[3]
  IC50: ≤ 10 µM
[4]
  IC50: ≤ 10 µM
[2]
  IC50: ≤ 10 µM
[5]
  IC50: ≤ 10 µM

## CCn1ncc2cc(-c3cc(=O)n4ncc(-c5nc(C)no5)c4[nH]3)ccc21 [Example 43, 5-(1-ethyl-1H-indazol-5-yl)-3-(3-methyl-1,2,4-oxadiazol-5-yl)-4H,7H-pyrazolo[1,5-a]pyrimidin-7-one]
[1]; IV, 3 mg/kg
  Cl (clearance): 23.9 mL/min/kg
  Vss (volume of distribution): 0.719 L/kg
  t1/2 (half-life): 1.62 h
[1]; PO, 10 mg/kg
  F (oral bioavailability): 44.7%
  Tmax (Time to maximum blood concentration after an oral dose): 0.5 h
  t1/2 (half-life): 3.35 h
[2]
  IC50: ≤ 10 µM

## COc1cc(-c2cc(=O)n3ncc(-c4ccnn4C)c3[nH]2)ccc1Cl [Example 51, 5-(4-chloro-3-methoxyphenyl)-3-(1-methyl-1H-pyrazol-5-yl)pyrazolo[1,5-a]pyrimidin-7(4H)-one]
[1]; IV, 3 mg/kg
  Cl (clearance): 62 mL/min/kg
  Vss (volume of distribution): 0.71 L/kg
  t1/2 (half-life): 0.38 h
[1]; PO, 10 mg/kg
  F (oral bioavailability): 1.17%
  Tmax (Time to maximum blood concentration after an oral dose): 0.25 h
  t1/2 (half-life): 2.62 h
[2]
  IC50: ≤ 10 µM

## Cn1nccc1-c1cnn2c(=O)cc(-c3ccc(Cl)c(Cl)c3)[nH]c12 [Example 98, 5-(3,4-dichlorophenyl)-3-(1-methyl-1H-pyrazol-5-yl)pyrazolo[1,5-a]pyrimidin-7(4H)-one]
[3]
  IC50: ≤ 10 µM
[4]
  IC50: ≤ 10 µM
[2]
  IC50: ≤ 10 µM
[5]
  IC50: ≤ 10 µM

## Cc1noc(-c2cnn3c(=O)cc(-c4ccc(Cl)c(Cl)c4)[nH]c23)n1 [Example 100, 5-(3,4-dichlorophenyl)-3-(3-methyl-1,2,4-oxadiazol-5-yl)-4H,7H-pyrazolo[1,5-a]pyrimidin-7-one]
[3]
  IC50: ≤ 10 µM
[4]
  IC50: ≤ 10 µM
[2]
  IC50: ≤ 10 µM
[5]
  IC50: ≤ 10 µM
